From patent US20240016781A1, “TREATMENT OF KRAS MUTANT CANCERS” (MEI Pharma, Inc., priority 2020, published 2024)
Read-outs that look alike come from different tables or passages of the source.

What was measured:
Assay in all cases: 72-hour CellTiter-Glo 2.0 growth inhibition screen (single agent, 9x9 combination dose matrix);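 for Best CI Level: inhibition effect level at which the best CI was calculated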
Assay type in all cases: cell-based
HPAF-II = tested on: HPAF-II;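 for Best CI Level: inhibition effect level at which the best CI was calculated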
SW48 = settings: for EC50: SW48, 72 h
SW48 KRAS (G12C/+) = settings: for EC50: SW48, 72 h, read-out: EC50
AsPC-1 = settings: for EC50: ASPC1, 72 h
LS-513 = settings: for EC50: LS-513, 72 h
[1] = HPAF-II (KRAS G12D), enhancer + MEI-522 (Voruciclib), 72 h;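 for Best CI Level: inhibition effect level at which the best CI was calculated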
[2] = enhancer combined with MEI-522 (Voruciclib), HPAF-II (Pancreas), 72 hours, inhibition data
[3] = Homo sapiens, SW48, Colorectal, Additional Single Agent Responses (inhibition, % I), 72 h
[4] = Homo sapiens, SW48, Colorectal, growth inhibition (GI) curve, single agent, 72 h
[5] = SW48 (KRAS WT), enhancer + MEI-522 (Voruciclib), 72 h
[6] = enhancer combined with MEI-522 (Voruciclib), SW48 (Colorectal), 72 hours, inhibition data
[7] = Homo sapiens, SW48 KRAS (G12C/+), Colorectal, Additional Single Agent Responses (inhibition, % I), 72 h
[8] = Homo sapiens, SW48 KRAS (G12C/+), Colorectal, growth inhibition (GI) curve, single agent, 72 h
[9] = SW48 KRAS (G12C/+), enhancer + MEI-522 (Voruciclib), 72 h
[10] = enhancer combined with MEI-522 (Voruciclib), SW48 KRAS (G12C/+) (Colorectal), 72 hours, inhibition data
[11] = AsPC-1 (KRAS G12D), enhancer + MEI-522 (Voruciclib), 72 h;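 for Best CI Level: inhibition effect level at which the best CI was calculated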
[12] = enhancer combined with MEI-522 (Voruciclib), AsPC-1 (Pancreas), 72 hours, inhibition data
[13] = Homo sapiens, LS-513, Colorectal, Additional Single Agent Responses (inhibition, % I), 72 h
[14] = Homo sapiens, LS-513, Colorectal, growth inhibition (GI) curve, single agent, 72 h
[15] = LS-513 (KRAS G12D), enhancer + MEI-522 (Voruciclib), 72 h;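 for Best CI Level: inhibition effect level at which the best CI was calculated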
[16] = enhancer combined with MEI-522 (Voruciclib), LS-513 (Colorectal), 72 hours, inhibition data

EC50 (SW48; [3]): 4.7 nM | EC50 (SW48; [4]): 4.9 nM | IC50 (SW48; [3]): 4.9 nM | GI50 (SW48; [4]): 4.6 nM | EC50 (SW48 KRAS (G12C/+); [7]): 4.3 nM | EC50 (SW48 KRAS (G12C/+); [8]): 4.4 nM | IC50 (SW48 KRAS (G12C/+); [7]): 4.6 nM | GI50 (SW48 KRAS (G12C/+); [8]): 4.4 nM | EC50 (AsPC-1; Homo sapiens, AsPC-1, Pancreas, Additional Single Agent Responses (inhibition, % I), 72 h): 12.2 nM | EC50 (AsPC-1; Homo sapiens, AsPC-1, Pancreas, growth inhibition (GI) curve, single agent, 72 h): 12.2 nM | IC50 (AsPC-1; Homo sapiens, ASPC1, AsPC-1, Pancreas, Additional Single Agent Responses (inhibition, % I), 72 h): 23.1 nM | GI50 (AsPC-1; Homo sapiens, ASPC1, AsPC-1, Pancreas, growth inhibition (GI) curve, single agent, 72 h): 13.7 nM
Structure (SMILES): CC[C@@H]1C(=O)N(C)c2cnc(Nc3ccc(C(=O)N[C@H]4CC[C@H](N5CCN(CC6CC6)CC5)CC4)cc3OC)nc2N1C(C)C [Volasertib]
Best CI (HPAF-II; [1]): 0.66 | Bliss Volume (HPAF-II; [1]): −0.85 | HSA volume (HPAF-II; [1]): 0.04 | Loewe Volume (HPAF-II; [1]): −0.80 | Synergy Score (HPAF-II; [1]): 2.64 | Response Area (HPAF-II; HPAF-II, Pancreas, Additional Single Agent Responses (inhibition, % I), 72 h): 3.45 | Response Area (HPAF-II; HPAF-II, Pancreas, growth inhibition (GI), AUC, single agent, 72 h): 4.65 | EC50 (HPAF-II; Homo sapiens, HPAF-II, 72 h, Pancreas, Additional Single Agent Responses (inhibition, % I)): 3.9 nM | EC50 (HPAF-II; Homo sapiens, HPAF-II, 72 h, Pancreas, growth inhibition (GI) curve, single agent): 3.9 nM | IC50 (HPAF-II; Homo sapiens, HPAF-II, Pancreas, Additional Single Agent Responses (inhibition, % I), 72 h): 6.2 nM | Emax (HPAF-II; Homo sapiens, HPAF-II, Pancreas, Additional Single Agent Responses, 72 h, read-out: Max Response (% I)): 71% | GI50 (HPAF-II; Homo sapiens, HPAF-II, Pancreas, growth inhibition (GI) curve, single agent, 72 h): 4.4 nM | Emax (HPAF-II; Homo sapiens, HPAF-II, Pancreas, growth inhibition (GI), single agent, 72 h, read-out: Max Response (% GI)): 95% | Best CI (HPAF-II; [2]): 0.52 | Bliss Volume (HPAF-II; [2]): −2.61 | HSA volume (HPAF-II; [2]): −0.36 | Loewe Volume (HPAF-II; [2]): −0.96 | Synergy Score (HPAF-II; [2]): 0.98 | Best CI Level (HPAF-II; enhancer combined with MEI-522 (Voruciclib), HPAF-II (Pancreas), 72 hours, inhibition data, unit assumed): 70% | Emax (SW48; Homo sapiens, SW48, Colorectal, Additional Single Agent Responses, 72 h, read-out: Max Response (% I)): 95% | Emax (SW48; Homo sapiens, SW48, Colorectal, growth inhibition (GI), single agent, 72 h, read-out: Max Response (% GI)): 174% | Best CI (SW48; [5]): 0.11 | Bliss Volume (SW48; [5]): 8.81 | HSA volume (SW48; [5]): −0.59 | Loewe Volume (SW48; [5]): 1.23 | Synergy Score (SW48; [5]): 11.75 | Response Area (SW48; SW48, Colorectal, Additional Single Agent Responses (inhibition, % I), 72 h): 4.47 | Response Area (SW48; SW48, Colorectal, growth inhibition (GI), AUC, single agent, 72 h): 6.76 | Best CI (SW48; [6]): 0.60 | Bliss Volume (SW48; [6]): 0.08 | HSA volume (SW48; [6]): 0.40 | Loewe Volume (SW48; [6]): 0.43 | Synergy Score (SW48; [6]): 1.83 | Best CI Level (SW48; enhancer combined with MEI-522 (Voruciclib), SW48 (Colorectal), 72 hours, inhibition data, unit assumed): 20% | Emax (SW48 KRAS (G12C/+); Homo sapiens, SW48 KRAS (G12C/+), Colorectal, Additional Single Agent Responses, 72 h, read-out: Max Response (% I)): 90% | Emax (SW48 KRAS (G12C/+); Homo sapiens, SW48 KRAS (G12C/+), Colorectal, growth inhibition (GI), single agent, 72 h, read-out: Max Response (% GI)): 141% | Response Area (SW48 KRAS (G12C/+); SW48 KRAS (G12C/+), Colorectal, Additional Single Agent Responses (inhibition, % I), 72 h): 3.98 | Response Area (SW48 KRAS (G12C/+); SW48 KRAS (G12C/+), Colorectal, growth inhibition (GI), AUC, single agent, 72 h): 5.48 | Best CI (SW48 KRAS (G12C/+); [9]): 0.08 | Bliss Volume (SW48 KRAS (G12C/+); [9]): 5.42 | HSA volume (SW48 KRAS (G12C/+); [9]): 1.24 | Loewe Volume (SW48 KRAS (G12C/+); [9]): 2.81 | Synergy Score (SW48 KRAS (G12C/+); [9]): 11.77 | Best CI (SW48 KRAS (G12C/+); [10]): 0.13 | Best CI Level (SW48 KRAS (G12C/+); [10]): 80 | Bliss Volume (SW48 KRAS (G12C/+); [10]): −0.04 | HSA volume (SW48 KRAS (G12C/+); [10]): 0.65 | Loewe Volume (SW48 KRAS (G12C/+); [10]): 1.39 | Synergy Score (SW48 KRAS (G12C/+); [10]): 3.33 | Best CI (AsPC-1; [11]): 0.51 | Bliss Volume (AsPC-1; [11]): −1.02 | HSA volume (AsPC-1; [11]): 0.04 | Loewe Volume (AsPC-1; [11]): −0.85 | Synergy Score (AsPC-1; [11]): 1.87 | Response Area (AsPC-1; AsPC-1, Pancreas, Additional Single Agent Responses (inhibition, % I), 72 h): 3.11 | Response Area (AsPC-1; AsPC-1, Pancreas, growth inhibition (GI), AUC, single agent, 72 h): 4.36 | Emax (AsPC-1; Homo sapiens, ASPC1, AsPC-1, Pancreas, Additional Single Agent Responses, 72 h, read-out: Max Response (% I)): 69% | Emax (AsPC-1; Homo sapiens, ASPC1, AsPC-1, Pancreas, growth inhibition (GI), single agent, 72 h, read-out: Max Response (% GI)): 96% | Best CI (AsPC-1; [12]): 0.89 | Best CI Level (AsPC-1; [12]): 20 | Bliss Volume (AsPC-1; [12]): −2.24 | HSA volume (AsPC-1; [12]): −0.18 | Loewe Volume (AsPC-1; [12]): −0.80 | Synergy Score (AsPC-1; [12]): 0.83 | EC50 (LS-513; [13]): 18.6 nM | EC50 (LS-513; [14]): 18.5 nM | IC50 (LS-513; [13]): 23.9 nM | Emax (LS-513; Homo sapiens, LS-513, Colorectal, Additional Single Agent Responses, 72 h, read-out: Max Response (% I)): 74% | GI50 (LS-513; [14]): 20 nM | Emax (LS-513; Homo sapiens, LS-513, Colorectal, growth inhibition (GI), single agent, 72 h, read-out: Max Response (% GI)): 91% | Best CI (LS-513; [15]): 0.60 | Bliss Volume (LS-513; [15]): 3.16 | HSA volume (LS-513; [15]): 1.53 | Loewe Volume (LS-513; [15]): 1.21 | Synergy Score (LS-513; [15]): 5.33 | Response Area (LS-513; LS-513, Colorectal, Additional Single Agent Responses (inhibition, % I), 72 h): 3.44 | Response Area (LS-513; LS-513, Colorectal, growth inhibition (GI), AUC, single agent, 72 h): 4.22 | Best CI (LS-513; [16]): 0.62 | Best CI Level (LS-513; [16]): 80 | Bliss Volume (LS-513; [16]): −1.28 | HSA volume (LS-513; [16]): 0.04 | Loewe Volume (LS-513; [16]): 0.06 | Synergy Score (LS-513; [16]): 1.44
